Measured values as given in US12569566B2, “Compositions containing, methods and uses of antibody-TLR agonist conjugates” (Ambrx, Inc., priority 2019, dated 2026).
Read-outs that look alike come from different tables or passages of the source.

Target: T1, hTLR7 (Homo sapiens, UniProt Q9NYK1)
T1 construct: host or cells: HEK-Blue hTLR7 (HEK293-derived reporter cell line)
T1 sequence (Q9NYK1 27-1049): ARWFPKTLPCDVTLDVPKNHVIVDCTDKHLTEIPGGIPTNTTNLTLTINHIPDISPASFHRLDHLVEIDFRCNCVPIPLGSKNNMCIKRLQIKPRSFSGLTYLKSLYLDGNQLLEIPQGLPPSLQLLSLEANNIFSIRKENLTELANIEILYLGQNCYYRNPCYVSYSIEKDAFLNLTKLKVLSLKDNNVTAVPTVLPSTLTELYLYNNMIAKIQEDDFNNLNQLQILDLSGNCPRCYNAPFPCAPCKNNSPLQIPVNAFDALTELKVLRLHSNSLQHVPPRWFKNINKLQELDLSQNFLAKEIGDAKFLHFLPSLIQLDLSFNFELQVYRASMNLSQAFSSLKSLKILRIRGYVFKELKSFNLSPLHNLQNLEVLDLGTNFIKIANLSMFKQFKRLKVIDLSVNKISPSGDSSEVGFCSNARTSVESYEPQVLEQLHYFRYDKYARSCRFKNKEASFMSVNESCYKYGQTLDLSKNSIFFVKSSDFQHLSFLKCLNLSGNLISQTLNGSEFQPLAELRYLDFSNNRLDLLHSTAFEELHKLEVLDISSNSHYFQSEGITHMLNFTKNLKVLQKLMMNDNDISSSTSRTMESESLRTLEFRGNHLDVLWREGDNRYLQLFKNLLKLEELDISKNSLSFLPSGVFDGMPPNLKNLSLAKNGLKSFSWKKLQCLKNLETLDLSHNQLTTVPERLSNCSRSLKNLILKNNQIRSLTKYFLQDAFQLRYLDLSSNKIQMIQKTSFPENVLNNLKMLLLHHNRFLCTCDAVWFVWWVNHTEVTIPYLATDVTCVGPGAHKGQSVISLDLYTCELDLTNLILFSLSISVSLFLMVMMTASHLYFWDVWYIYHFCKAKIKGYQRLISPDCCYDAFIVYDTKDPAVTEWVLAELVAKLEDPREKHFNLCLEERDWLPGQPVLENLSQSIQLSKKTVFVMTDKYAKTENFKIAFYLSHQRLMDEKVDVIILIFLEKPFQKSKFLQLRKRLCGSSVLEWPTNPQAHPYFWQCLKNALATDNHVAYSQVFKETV
Test: HEK-Blue hTLR7 reporter assay (NF-kB-induced SEAP, Quanti-Blue, OD 655 nm)
Type: cell-based
Details: for TLR7 activity / potency stated in words: FIGS. 6-9
Protocol: HEK-Blue™ hTLR7 cells were incubated in HEK-Blue™ Detection medium and stimulated with increasing concentrations of TLR7 or TLR8 or TLR7/8 agonists. […] The EC50 was determined from dose-response curve using Prism Software.

[1] = Table 14, FIG. 8, (DL) = drug linker, read-out: TLR7 EC50
[2] = text to FIG. 5B and FIG. 8, read-out: EC50 values (TLR7)

**Q.** Which EC50 (Table 10, FIG. 5A, 24 h, read-out: TLR7 EC50) does the source give for `CCOCc1nc2c(N)nc3ccccc3c2n1CCCCNC(=O)c1ccc(N)c(OC)c1` [AXC-807] here?
**A.** 413 nM

**Q.** `CCCCNc1nc(N)c2[nH]c(=O)n(Cc3ccc(NCCN(C)CCNC(=O)CON)nc3)c2n1` [AXC-868, N-(2-((2-(5-((6-amino-2-(butylamino)-8-oxo-7H-purin-9(8H)-yl)methyl)pyridin-2-ylamino)ethyl)(methyl)amino)ethyl)-2-(aminooxy)acetamide] was tested. Which EC50 (Table 12, FIG. 6, TLR7 agonists attached to a linker, read-out: TLR Agonist Payload + Linkers EC50) did it give?
**A.** > 5000 nM

**Q.** Which “TLR7 activity / potency stated in words” value does the source give for `CCCCOc1nc(N)c2[nH]c(=O)n(Cc3ccc(CN4CCC(CCNC(=O)CON)CC4)cc3)c2n1` [AXC-879, N-(2-(1-(4-((6-amino-2-butoxy-8-oxo-7H-purin-9(8H)-yl)methyl)benzyl)piperidin-4-yl)ethyl)-2-(aminooxy)acetamide] here?
**A.** highest potency

**Q.** `CCCCOc1nc(N)c2[nH]c(=O)n(Cc3ccc(CN4CCC(CCNC(=O)c5ccc(N)c(OC)c5)CC4)cc3)c2n1` [AXC-895, 4-amino-N-(2-(1-(4-((6-amino-2-butoxy-8-oxo-7H-purin-9(8H)-yl)methyl)benzyl)piperidin-4-yl)ethyl)-3-methoxybenzamide] was tested. Which “TLR7 activity / potency stated in words” value did it give?
**A.** highest potency

**Q.** How did the “TLR7 activity / potency stated in words” value turn out when `CCCCOc1nc(N)c2[nH]c(=O)n(Cc3ccc(CN4CCC(C5CCN(C(=O)CON)CC5)CC4)cc3)c2n1` [AXC-901, 6-amino-9-(4-((1′-(2-(aminooxy)acetyl)-4,4′-bipiperidin-1-yl)methyl)benzyl)-2-butoxy-7H-purin-8(9H)-one] was run?
**A.** highest potency

**Q.** With `CCCCOc1nc(N)c2[nH]c(=O)n(Cc3ccc(CN4CCC(CCNC(=O)c5cccc(N)c5)CC4)cc3)c2n1` [AXC-903, 3-amino-N-(2-(1-(4-((6-amino-2-butoxy-8-oxo-7,8-dihydro-9H-purin-9-yl)methyl)benzyl)piperidin-4-yl)ethyl)benzamide] as the compound, how does the EC50 [1] read?
**A.** 4.3 nM

**Q.** What about the EC50 [2] of the same compound?
**A.** < 10 nM

**Q.** For `CCCCOc1nc(N)c2[nH]c(=O)n(Cc3ccc(CN4CCC(CCNC(=O)c5ccc(CCN)cc5)CC4)cc3)c2n1` [AXC-904, N-(2-(1-(4-((6-amino-2-butoxy-8-oxo-7,8-dihydro-9H-purin-9-yl)methyl)benzyl)piperidin-4-yl)ethyl)-4-(2-aminoethyl)benzamide], which EC50 [1] is on record?
**A.** 8.1 nM

**Q.** What about the EC50 [2] of the same compound?
**A.** < 10 nM

**Q.** With `CCCCOc1nc(N)c2[nH]c(=O)n(Cc3ccc(CN4CCC(CCNC(=O)c5ccc(N)cc5)CC4)cc3)c2n1` [AXC-905, 4-amino-N-(2-(1-(4-((6-amino-2-butoxy-8-oxo-7,8-dihydro-9H-purin-9-yl)methyl)benzyl)piperidin-4-yl)ethyl)benzamide] as the compound, how does the EC50 [1] read?
**A.** 2.6 nM
